Data published in US20260242320A1, “USE OF CANNABIDIOL DERIVATIVE IN PREPARATION OF MEDICAMENT” (priority 2023, published 2026).

Legend:
[1] = test system: microglial activation marker Iba1; test: Iba1 immunofluorescence staining of brain sections; type: in vivo, mice; conditions: chronic morphine
Protocol: Mice were anesthetized with tribromoethanol following the CPP assay and intracardially perfused with 8 mL saline; the brains were then stripped out and embedded in paraffin. The brain was sectioned coronally at 5 μm thickness on a vibrating microtome. Paraffin-processed tissues were deparaffinized in xylene and rehydrated with a graded alcohol solution. The sections were placed in 0.01 M citrate buffer (pH 6.0) and heated in a microwave oven for hot antigen repair. These sections were incubated with goat serum for 20 min at 37° C. and then with rabbit anti-Iba1 monoclonal antibody at 4° C. overnight. After three washes with PBS, the sections were incubated with an Alexa-488-conjugated secondary antibody for 1 h in the dark. Ultimately, followed by three washes with PBS twice for 5 min each, the sections were counterstained with DAPI and examined under a confocal microscope

Open field test = type: in vivo, mice; conditions: 20 mg/kg i.p., seven consecutive days
Protocol: After two days of habitation, each mouse was placed in the open field, and the moving distances within 1 h and the grooming and rubbing numbers within the first 15 min was recorded as vehicle control (pre-test group). Next, each mouse was administered CIAC001 (20 mg/kg; i.p.) once daily for 7 days. 24 h after the last administration, the moving distances and the grooming and rubbing numbers were measured again to compare changes before and after CIAC001 treatment.

[2] = Respiratory rate determination; type: in vivo, mice; conditions: CIAC001 20 mg/kg i.p.; THC 10 mg/kg i.p.
Protocol: Mice were intraperitoneally injected with 20 mg/kg CIAC001 or 10 mg/kg THC once daily. After 1 h, the mice were anesthetized with isoflurane by a small animal anesthesia machine (R500IE, RWD Life Science Co) on day 2 and day 5. The respiratory rate of mice was recorded three times within 20 s. The weights of mice were recorded every day.

CB1 Receptor = biological target: T1, CB1 Receptor (Homo sapiens, UniProt P21554); test: cAMP measurement, forskolin-induced cAMP accumulation, CB1; type: cell-based; conditions: cAMP assay
T1 construct: expressed in transfected cells; host or cells: GloSensor 22-F HEK293 cells
T1 sequence (P21554 whole entry): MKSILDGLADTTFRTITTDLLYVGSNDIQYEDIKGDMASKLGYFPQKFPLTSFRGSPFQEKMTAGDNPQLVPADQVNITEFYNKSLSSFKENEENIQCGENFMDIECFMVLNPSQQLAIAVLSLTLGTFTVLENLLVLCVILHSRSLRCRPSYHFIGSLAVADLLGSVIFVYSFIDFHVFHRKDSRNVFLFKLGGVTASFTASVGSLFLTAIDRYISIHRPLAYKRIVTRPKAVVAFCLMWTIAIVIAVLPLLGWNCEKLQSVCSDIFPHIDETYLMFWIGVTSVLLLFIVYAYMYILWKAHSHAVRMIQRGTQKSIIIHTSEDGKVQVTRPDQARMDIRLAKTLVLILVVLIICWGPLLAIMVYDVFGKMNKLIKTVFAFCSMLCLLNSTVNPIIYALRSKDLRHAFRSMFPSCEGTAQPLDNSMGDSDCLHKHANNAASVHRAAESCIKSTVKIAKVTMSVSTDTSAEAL
Protocol: GloSensor 22-F HEK293 cells were transfected with plasmids encoding different receptors (CB1 and CB2). After 24 h, HEK293 cells were seeded at a density of 5×10^4 cells per well in 96-well plates and incubated for 8 h; then, the medium was removed, and 200 μL of serum-free DMEM medium containing 2% GloSensor cAMP substrate (Promega) was added. After 2 h incubation, the transfected cells were stimulated with different concentrations of ligands together with […]. The luminescence was recorded using a Multimode Plate Reader (En Vision, PerkinElmer).

[3] = test system: LPS-induced IL-1β, TNF-α, IL-6, iNOS, IL-10 mRNA in BV-2 cells; test: qRT-PCR of proinflammatory and M1/M2 marker mRNAs in LPS-treated BV-2 cells; type: cell-based
Protocol: Total RNA was extracted from cells or mouse brains using the RNeasy Mini Kit. Isolated RNA was reverse-transcribed into cDNA using an RT2 Easy First Strand cDNA Synthesis Kit following the manufacturer's protocols. PCR amplification was conducted using synthetic primers, SYBR Green, and a TOptical Real-Time qPCR Thermal Cycler (Analytik Jena, Thuringia, Germany). The data were analyzed by the […] method, and Rpl711 or Rpl27 was used as an internal control.

[4] = test system: 3×Tg Alzheimer's disease mice; test: Anxiety tests in Alzheimer's disease model mice (high plus maze, open field); type: in vivo; conditions: i.p., 45 days
Source text: For Alzheimer's disease behavioral experiments (Morris water maze, open field experiment, novel object recognition, Y-maze, and elevated cross maze), triple transgenic mouse models (B6:129-Psen1tm1Mpm Tg (APPswe, tauP301L) 1Lfa/J, 3×Tg) were purchased from the Jax Laboratory in the United States. The wild-type mice (C57BL/6J, WT) were purchased from Beijing Vital River Laboratory Animal Technology Co., Ltd. After 45 days of intraperitoneal injection of CIAC001, all mice were subjected to subsequent behavioral experiments. In order to minimize the use of mice, the mice are first tested for sufficient physical strength and normal mental states. Only one behavioral experiment is conducted per day based on the following schedule: day 1: open field test; day 2-3: novel object recognition; day 3: elevated plus maze; day 4: Y-maze; day 5-13: Morris water maze.
The elevated cross maze consisted of two intersecting open arms (25×5×0.5 cm) and two enclosed arms (25×5×16 cm) that were perpendicular to the open arms. A platform (5×5×0.5 cm) was placed in the center of the maze. […]
At the beginning of the experiment, the mouse was placed in the center area of the elevated cross maze, facing one of the enclosed arms. […] A camera connected to a computer was used to capture the mouse's movements, and the number of entries and time spent in the open and enclosed arms were recorded. […]

Tau, TrkB, Syn1, Aβ = test: Western blot of Alzheimer's disease markers in mouse hippocampus; type: in vivo; conditions: transgene mice, 0, 0.2, 2, or 20 mg/kg
Protocol: The protein samples from the mouse hippocampus were analyzed for Tau5, p-Tau (T231), p-Tau (S202), p-Tau (S404), p-TrkB (Y705), Syn1, Aβ1-42, and Aβ1-16 protein content using Western blot technique.

[5] = LPS-treated cells, mRNA by qPCR

**Q.** What does the source list for C=C(C)[C@@H]1CCC(C)=C[C@H]1c1c(O)cc(C(C)n2nccn2)cc1O (stereo partly drawn) [CIAC001, (1′R,2′R)-4-(1-(2H-1,2,3-Triazol-2-yl)ethyl)-5′-methyl-2′-(prop-1-en-2-yl)-1′,2′,3′,4′-tetrahydro-[1,1′-biphenyl]-2,6-diol]?
**A.** expression of Iba1 in the mPFC [1]: decreased the expression of Iba1; grooming and rubbing behaviors (open field) (Open field test): No apparent differences; motor activity (open field) (Open field test): No apparent differences; respiratory rate [2]: did not affect the respiratory rate; CB1 receptor activity (CB1 Receptor): no apparent CB1/CB2 activity; LPS-induced overexpression of IL-1β mRNA ([3]; BV-2 cells): concentration-dependently inhibited; LPS-induced overexpression of IL-6 mRNA ([3]; BV-2 cells): concentration-dependently inhibited; LPS-induced overexpression of TNF-α mRNA ([3]; BV-2 cells): concentration-dependently inhibited; expression of M1 phenotype markers IL-1β and iNOS [3, 5]: inhibited LPS-induced increased expression; expression of M2 phenotype marker IL-10 [3, 5]: attenuated LPS-induced decreased expression; Alzheimer's disease induced anxiety (arm entry activity, grid traversal) [4]: restored arm entry activity and grid traversal; Syn1 and Aβ levels (Tau, TrkB, Syn1, Aβ): reduces Syn1 and Aβ levels; Tau and TrkB phosphorylation (Tau, TrkB, Syn1, Aβ): inhibits Tau and TrkB phosphorylation
